Measurements: PMC8026479 (Cancer Chemotherapy and Pharmacology, 2021)

Tests used:
[1] = Population PK model with allometric scaling of preclinical and human PK data; set-up: species or system mouse, rat, dog; conditions: estimated
Excerpt: (§1) Owing to the invasive nature of the PD marker collection (i.e. bone marrow aspiration), a semi-mechanistic PK/PD model based on animal PK/PD data and human PK data was developed to guide the selection of an optimal dose level for bone marrow aspiration in humans during dose escalation in the Phase I first-in-human study. The model was constructed using PK data from four species (mouse, rat, dog, and human) and PD data from three species (mouse, rat, and dog; Online Resources 1 and 2).
The model was constructed in two stages. First, preclinical PK data (e.g. doses, routes, and schedule of administration, observed concentrations) were compiled and modeled by allometric scaling. A sequential PK/PD modeling approach (population PK parameters and data approach) was then employed in which a semi-mechanistic PD model with various physiological compartments was created, and specific assumptions entered (Online Resource 3). Traditional forward addition/backward elimination was used for PK modeling. […] Many parameters in this complex model could not be estimated and were fixed either to the literature values or values selected on the basis of discussions with domain experts and sensitivity analysis. In preclinical animal models, the PD analysis modeled bone marrow cells positive for 5′-ethynyl-2′-deoxyuridine (EdU) and peripheral neutrophil counts simultaneously. Although the preclinical animal models could determine the G1 phase, they could not differentiate S, G2, and M phases; cells in these phases will be referred to as “cycling” throughout this manuscript.
Online Resource 1 List of studies used in PK and PD models
Data set Species Administration route Endpoint
BM bone marrow, EdU 5’-ethynyl-2’-deoxyuridine, IP intraperitoneal, IV intravenous, PD pharmacodynamics , PK
pharmacokinetics , PMN polymorphonuclear cell
Online Resource 2 Brief description of animal studies used in PK and PD models
Preclinical pharmacokinetic (PK)/toxicokinetic studies were conducted in mice, rats, and dogs. Data from eight
studies in four species, with a total of 1628 observations from 191 individuals, were used for PK/pharmacodynamic
(PD) modeling. Administration routes included oral, intravenous (IV), and intraperitoneal (IP). The designs of these
studies are described briefly below:
samples were collected from pre dose up to 48 h post dose. In rat toxicology studies, rats received 7-day
PK samples were collected
from pre dose up to 24 h post dose on Day 1 and Day 7.
samples were collected from pre dose up to 30 h post dose.
IV infusion. […]
Online Resource 3 PK/PD model parameters and assumptions
PK model parameters for trilacicliba
Ka (/h) 20.0 (FIXED) Assumptionb
Bioavailability (oral, mouse) 0.62 Estimated
Intercompartment rate constant 15.94 Estimated
Intercompartment clearance K42 0.29 Estimated
Allometric exponent for V 1.00 Estimated
Allometric exponent for CL 1.00 (FIXED) Assumptionc
Additive error 2.00 (FIXED) Assumptiond
Proportional error 0.32 Estimated
PD model parameters for trilaciclib and
Rate constant for BM precursor G 0.04 (FIXED) Assumption e
Rate constant for neutrophils 3.24*E-2 (FIXED) Assumption f
Max effect of G1T28 in the E max 1.00 (FIXED) Assumption g
Concentration of G1T28 with 5.90 Estimated
Feedback slope (/h) 1.00*E-6 (FIXED) Assumptionh
Scale for neutrophils in mice 150 Estimated
Scale for neutrophils in dogs 848 Estimated
EC50 as fraction of baseline value 2.00 Estimated
of persistence effect . Effect is on
transition of S phase cells to G1
Rate constant for stem cell G to 0.51 Estimated
Residual error variance 0.73 Estimated
aPK model parameters for 5 -FU were obtained from the literature
K a could not be estimated and
cThe allometric exponent for CL was estimated to be 0.945 from an earlier model during the model development
process and was fixed to 1 .00 for the purpose of model simplification to avoid overparameterization
dThe additive error was fixed to 20% of the assay LLOQ (10 ng/mL) to decrease the number of parameters to fit […]

[2] = system: transition rate constant from G1 to cycling for HSPCs; assay: Semi-mechanistic multi-compartment PK/PD model of hematopoiesis; set-up: species or system mouse, rat, and dog
Excerpt: as §1
The PK/multi-compartment PD model was based on a myelosuppression model previously published by Friberg et al., with modifications. […] In the model used in the current study, stem cells and progenitor cells were separated into two compartments, with experimental data measured for each compartment. […] Another important deviation from the Friberg model was the mechanism postulated for the homeostasis of the […] (PMNs). We postulated that the feedback mechanism has a set point target and that deviations from that target would accelerate (in the case of too few PMNs) or decelerate (in the case of too many PMNs) the transition of G1-phase cells to S-phase cells in the stem cell population.
The model was constructed in two stages. First, preclinical PK data (e.g. doses, routes, and schedule of administration, observed concentrations) were compiled and modeled by allometric scaling. A sequential PK/PD modeling approach (population PK parameters and data approach) was then employed in which a semi-mechanistic PD model with various physiological compartments was created, and specific assumptions entered (Online Resource 3). Traditional forward addition/backward elimination was used for PK modeling. […] Many parameters in this complex model could not be estimated and were fixed either to the literature values or values selected on the basis of discussions with domain experts and sensitivity analysis. In preclinical animal models, the PD analysis modeled bone marrow cells positive for 5′-ethynyl-2′-deoxyuridine (EdU) and peripheral neutrophil counts simultaneously. […]

Q: With `CN1CCN(c2ccc(Nc3ncc4cc5n(c4n3)C3(CCCCC3)CNC5=O)nc2)CC1` [trilaciclib] as the molecule, how does the bioavailability ([1]; 150 mg/kg, oral, mouse) read?
A: 62%

Q: And the “Intercompartment clearance K24” value [1]?
A: 2.03 h⁻¹

Q: What about the “Intercompartment clearance K32” value [1] of the same molecule?
A: 4.42 h⁻¹

Q: And the “Intercompartment clearance K42” value [1]?
A: 0.29 h⁻¹

Q: What about the “Intercompartment rate constant K23” value [1] of the same molecule?
A: 15.94 h⁻¹

Q: And the clearance ([1]; mouse, rat, dog, human, three-compartment model, allometric scaling, read-out: CL, PK model (converted))?
A: 46.2 mL/min/kg

Q: And the Vd ([1]; mouse, rat, dog, human, three-compartment model, allometric scaling, read-out: V (central volume of distribution), PK model)?
A: 1.32 L/kg

Q: What about the “EC50, final PD model (concentration of G1T28 with 50% max effect)” value ([2]; plasma concentration, Emax effect on G1-to-cycling transition of HSPCs, model estimate) of the same molecule?
A: 5.9 ng/mL

Q: And the “EC90 (therapeutically active)” value ([2]; predicted from model EC50)?
A: approximately 50 ng/mL
